Values after ≈ are worked out from the molar mass of the structure shown.
How the values were obtained:
[1] = Hydroxyl radical scavenging activity; assay type: biochemical
Method: Hydroxyl radical scavenging activity of the extract was measured by following the method of Elizabeth and Rao, (1990). Briefly, 1 mg/mL spice extract stock solution was prepared in distilled water and mixed with the reaction mixture containing deoxyribose (2.8 mM), ferric chloride (0.1 mM) EDTA (0.1 mM), H2O2 (1 mM), ascorbate (0.1 mM), and KH2PO4—KOH (20 mM, pH 7.4) at various concentrations (1-10 μg/mL) to a total volume of 1 mL and incubated for 1 hr at 37° C. Absorbance of each solution was measured at 530 nm using a UV/VIS spectrophotometer against the distilled water as reference. From the absorbance of the control and test solution, percentage inhibition was calculated.

[2] = DPPH assay; assay type: biochemical
Method: Briefly, various concentrations of the extract were added to 1 mL of freshly prepared DPPH solution in methanol. The reaction mixture was made up to 2 mL with methanol; incubated for 20 minutes; read at 515 nm against methanol as reference. The percentage inhibition was calculated and concentration needed for 50% inhibition was found out. […] Mix well and this was given to five volunteer for sensory evaluation. The sample was first de-oiled and its antioxidant level was check using DPPH, ABTS, & SOD method comparing with plain potato chips.

[3] = system: rat liver homogenate; test: Lipid peroxidation assay; assay type: biochemical
Method: The level of lipid peroxidation was measured by the method of Ohkawa et al (1979). Briefly, 1 mg/mL spice extract stock solution was prepared in distilled water. Various concentrations (1-10 μg/mL) of extract were incubated with 0.1 mL rat liver homogenate (25%) containing 30 mM KCl, Tris-HCl buffer (0.04 M, pH 7.0), ascorbic acid (0.06 mM) and ferrous ion (0.16 mM) in a total volume 0.5 mL for 1 hr. After incubation, 0.4 mL of reaction mixture was treated with 0.2 mL SDS (8.1%), 1.5 mL TBA (0.8%) and 1.5 mL acetic acid (20%, pH 3.5) distilled water were kept for 1 hr in a boiling water bath at 100° C. […] Absorbance of the clear supernatant was measured at 532 nm against pyridine:butanol. Percent inhibition of lipid peroxidation was calculated using the equation: […]

[4] = ABTS assay; assay type: biochemical
Method: Keep ABTS solution at Room temperature for 16 hours, and then store it at 4° C. (if not use). Take 500 μL, ABTS solution and add 50 mL PBS; adjust the OD to 0.7-0.8 against PBS as reference at 734 nm. Take 1 mL ABTS solution with different varies concentration of the extracts (1 mg/mL spice extract stock solution was prepared in distilled water) and made up to 2 mL with PBS. Keep the sample at room temperature for 6 minutes. The absorbance was measured at 734 nm. The results were calculated from the slopes of reaction curves obtained by plotting the absorbance Vs time. […] Mix well and this was given to five volunteer for sensory evaluation. The sample was first de-oiled and its antioxidant level was check using DPPH, ABTS, & SOD method comparing with plain potato chips.

[5] = Superoxide radical anion scavenging activity; assay type: biochemical
Method: McCord and Fridovich, (1969), measure super oxide radical anion scavenging activity. Briefly, 1 mg/mL spice extract stock solution was prepared in distilled water. The reaction mixture contained 200 μL KCN [dissolved in EDTA (6 mM)], 50 μL riboflavin (0.12 mM), 100 μL NBT (1.5 mM) and various concentrations (1-10 μg/mL) of the extract and add Phosphate buffer made up to 3 mL. The tubes containing the reaction mixture were uniformly illuminated with an incandescent lamp for 15 minutes. The absorbance was measured at 530 nm before and after the illumination. Percent inhibition of superoxide radical was calculated using the equation: […] Mix well and this was given to five volunteer for sensory evaluation. The sample was first de-oiled and its antioxidant level was check using DPPH, ABTS, & SOD method comparing with plain potato chips.

[6] = system: carrageenan induced paw oedema; test: In vivo anti-inflammatory potential, carrageenan induced paw oedema model; set-up: species or system Swiss albino mice; details: reference drug at dose 50 mg/kg body weight
Method: The animals for experimental model were taken from small breeding station of Amala Cancer Research Centre, Thrissur (Registration No. 149/99/CPCSEA) and […] Institute of Medical Science, Kochi (Registration No. 527/02/a/CPCSEA). The animals were kept in air-conditioned room at 22±2° C. and relative humidity […] with 12 hours day and light cycle, fed with normal mouse chow, a natural ingredient diet (Sai Feeds, India) and water ad libitum. All animal experiments were performed according to the rules and regulations of the Committee for the Purpose of Control and Supervision of Experiments on Animals (CPCSEA), Government of India. Five groups each contained six Male Swiss albino mice (25-30 g) in each group were injected with 25 μL of 1% suspension of carrageenan in 0.1% carboxy methylcellulose (CMC) sub-planetary into right hind paw. Paw volume was measured at various time intervals such as, paw volume before inflammation induction, then for 1, 2, 3, 4, 5 and 24 hours after carrageenan administration using a vernier calliper. Clove extract at doses 25, 50 and 100 mg/kg body weight was administered (orally) 1 hour prior to carrageenan injection. […] The percentages of inhibition were calculated according to the following formula. […] Where, VT-Paw oedema at various time intervals and Vo-Initial paw oedema [table]

| IC50, hydroxyl radical scavenging [1] | IC50, DPPH [2] | IC50, lipid peroxidation [3] | IC50, ABTS [4] | IC50, superoxide radical anion scavenging [5] | SMILES | inhibition of paw oedema [6] |
| --- | --- | --- | --- | --- | --- | --- |
| 1550 µg/mL (≈ 8800 µM) | 14 µg/mL (≈ 79.5 µM) | 375 µg/mL (≈ 2130 µM) | 2.25 µg/mL (≈ 12.8 µM) | 1900 µg/mL (≈ 10800 µM) | O=C1O[C@H]([C@@H](O)CO)C(O)=C1O [Vitamin C] | – |
| – | – | – | – | – | O=C(O)Cc1ccccc1Nc1c(Cl)cccc1Cl [diclofenac, Diclofenac] | 56.70% |
